Laboratory results: patent US10851403B2, “Cyclin-dependent kinase substrate” (SYSMEX CORPORATION, priority 2017, dated 2020)
No end group written: not given here. *: point of attachment. Biotin = O=C1N[C@H]2[C@H](CS[C@H]2CCCCC(=O)*)N1; Ahx = NCCCCCC(=O)O

Key:
Format in all cases: biochemical
CDK4 and CDK6 = experiment: CDK reactivity test 2 (Test Example 2), CDK4/6 reactivity; conditions: [(V2/V1)+(V4/V3)]/2; relative value when Comparative Polypeptide 2 is set as 1
Experimental: (§1) In a tube, 15 μL of a CDK solution (composition: 10 μg/mL CDK/cyclin complex, 1% BSA, triethanolamine buffer solution (pH 7.5)) containing CDK1/cyclin A2, CDK2/cyclin E1, CDK4/cyclin D3 or CDK6/cyclin D3 (all manufactured by SignalChem) and 15 μL of a kinase reaction solution (composition: 4 μg/mL substrate peptide, 50 mM HEPES-NaOH buffer solution (pH 7.4), 15 mM MgCl2, 2 mM ATP-γS) containing Polypeptide 1, Comparative Polypeptide 1 or Comparative Polypeptide 2 as a substrate peptide were mixed, and the tube was incubated at 37° C. for 1 hour with stirring at 900 rpm using a constant temperature shaker. 21.4 μL of a fluorescent labeling reagent (composition: 180 μg/ml 5-(iodoacetamide)-FITC, 50 mM EDTA, 300 mM MOPS-NaOH, pH 7.4) was added to the tube and pipetted 5 times, then the tube was shielded from light and incubated at 37° C. for 10 minutes with stirring at 400 rpm using a constant temperature shaker. 100 μL of a fluorescent labeling reaction stop solution (composition: 30 mM N-acetyl-L-cysteine, 2 M MOPS-NaOH, pH 7.4) was added to the tube and pipetted 5 times. 30 μL (containing 0.15 μg of magnetic St-Ab beads) of a HISCL HBsAg R2 reagent (manufactured by Sysmex Corporation) was added to the tube, then the tube was shielded from light and incubated at 37° C. for about 10 minutes with stirring at 1600 rpm using a constant temperature shaker. The beads in the tube were precipitated using a magnet, and the supernatant was removed. Then, TBS-T was added, and the beads were washed at 37° C. for about 10 seconds with stirring at 1600 rpm. This washing step was performed three times in total. 100 μL of an ALP-labeled anti-FITC antibody solution (composition: 0.2 to 1 μg/mL ALP-labeled anti-FITC antibody (manufactured by Jackson ImmunoResearch Laboratories, Inc.), 100 mM MES, 150 mM NaCl, 1% BSA, pH 6.5) was added to the tube, then the tube was shielded from light and incubated at 37° C. for about 10 minutes with stirring at 1600 rpm using a constant temperature shaker. The beads in the tube were precipitated using a magnet, and the supernatant was removed. Then, TBS-T was added, and the beads were washed at 37° C. for about 10 seconds with stirring at 1600 rpm. This washing step was performed three times in total. 50 μL of a buffer solution containing Tris (manufactured by Sysmex Corporation, HISCL R4 reagent) was added to the tube and stirred at 2000 rpm at 37° C. for 10 seconds using a constant temperature shaker. 100 μL of a buffer solution (manufactured by Sysmex Corporation, HISCL R5 reagent) containing an ALP luminescent substrate (disodium 2-chloro-5-(4-methoxyspiro{1,2-dioxetane-3,2′-(5′-chloro)-tricyclo[3.3.1.1^3,7]decan}-4-yl)-1-phenyl phosphate) was added to the tube, then the tube was shielded from light and incubated at 37° C. for 4 minutes with stirring at 1600 rpm using a constant temperature shaker. The beads in the tube were precipitated using a magnet, and the supernatant was transferred to a black plate. Luminescence was detected with a luminometer, and the luminescence intensity was measured.
Test Example 2 was carried out in the same manner as in Test Example 1 except that CDK4 or CDK6 was used as CDK and the polypeptides (Polypeptides 2 to 13) obtained in Production Example 2 or Comparative Polypeptide 2 was used as a substrate peptide. V1 to V4 below:
V 1: luminescence intensity when using Comparative Polypeptide 2 and CDK4,
V 2: luminescence intensity when using any of Polypeptides 2 to 17 and A to E, and CDK4,
V 3: luminescence intensity when using Comparative Polypeptide 2 and CDK6, and
V 4: luminescence intensity when using any of Polypeptides 2 to 17 and A to E, and CDK6
were measured, and CDK4/6 reactivity was calculated based on the formula ([(V2/V1)+(V4/V3)]/2). CDK4/6 reactivity is a relative value when the CDK4/6 reactivity of Comparative Polypeptide 2 is set as 1. […]

CDK2/cyclin E1 = biological target: T1, CDK2/cyclin E1 (Homo sapiens, UniProt P24941); experiment: CDK reactivity test 1 (Test Example 1); conditions: 10 μg/mL CDK/cyclin complex, 4 μg/mL substrate peptide, ATP-γS, 37° C. 1 hour
T1 construct: purchased SignalChem
Experimental: (§2) The reactivity of the polypeptide obtained in Production Example 1 to CDK1, CDK2, CDK4 and CDK6 was examined. Specifically, it was performed as follows.
as §1

CDK6/cyclin D3 = biological target: T2, CDK6/cyclin D3 (Homo sapiens, UniProt Q00534); experiment: CDK reactivity test 1 (Test Example 1); conditions: 10 μg/mL CDK/cyclin complex, 4 μg/mL substrate peptide, ATP-γS, 37° C. 1 hour
T2 construct: purchased SignalChem
T2 sequence (Q00534 whole entry): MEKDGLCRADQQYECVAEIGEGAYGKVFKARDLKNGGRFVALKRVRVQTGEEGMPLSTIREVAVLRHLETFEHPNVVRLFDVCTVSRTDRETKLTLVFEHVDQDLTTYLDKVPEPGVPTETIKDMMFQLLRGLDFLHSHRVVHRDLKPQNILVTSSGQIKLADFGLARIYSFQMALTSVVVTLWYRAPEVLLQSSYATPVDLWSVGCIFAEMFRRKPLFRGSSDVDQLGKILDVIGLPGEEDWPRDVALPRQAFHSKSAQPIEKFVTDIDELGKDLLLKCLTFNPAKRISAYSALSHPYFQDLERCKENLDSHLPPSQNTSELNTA
T2 sequence (P30281 whole entry partner): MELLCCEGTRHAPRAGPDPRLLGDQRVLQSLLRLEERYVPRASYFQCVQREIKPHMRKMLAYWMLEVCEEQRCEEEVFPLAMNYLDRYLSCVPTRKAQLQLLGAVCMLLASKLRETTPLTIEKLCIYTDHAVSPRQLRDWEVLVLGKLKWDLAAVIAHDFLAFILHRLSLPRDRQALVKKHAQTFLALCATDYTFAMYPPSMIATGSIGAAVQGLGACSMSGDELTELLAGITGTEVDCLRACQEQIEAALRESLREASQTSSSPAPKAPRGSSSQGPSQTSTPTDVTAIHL
Experimental: as §2, §1

CDK1/cyclin A2 = biological target: T3, CDK1/cyclin A2 (Homo sapiens, UniProt P06493); experiment: CDK reactivity test 1 (Test Example 1); conditions: 10 μg/mL CDK/cyclin complex, 4 μg/mL substrate peptide, ATP-γS, 37° C. 1 hour
T3 construct: purchased SignalChem
T3 sequence (P06493 whole entry): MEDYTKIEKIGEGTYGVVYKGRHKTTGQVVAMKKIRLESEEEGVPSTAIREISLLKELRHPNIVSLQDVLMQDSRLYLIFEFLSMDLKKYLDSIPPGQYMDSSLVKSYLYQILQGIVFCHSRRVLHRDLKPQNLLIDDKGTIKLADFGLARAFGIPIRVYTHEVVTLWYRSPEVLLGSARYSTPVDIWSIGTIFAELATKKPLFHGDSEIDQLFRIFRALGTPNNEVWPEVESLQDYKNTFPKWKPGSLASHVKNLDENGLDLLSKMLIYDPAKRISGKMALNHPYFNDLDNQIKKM
T3 sequence (P20248 whole entry partner): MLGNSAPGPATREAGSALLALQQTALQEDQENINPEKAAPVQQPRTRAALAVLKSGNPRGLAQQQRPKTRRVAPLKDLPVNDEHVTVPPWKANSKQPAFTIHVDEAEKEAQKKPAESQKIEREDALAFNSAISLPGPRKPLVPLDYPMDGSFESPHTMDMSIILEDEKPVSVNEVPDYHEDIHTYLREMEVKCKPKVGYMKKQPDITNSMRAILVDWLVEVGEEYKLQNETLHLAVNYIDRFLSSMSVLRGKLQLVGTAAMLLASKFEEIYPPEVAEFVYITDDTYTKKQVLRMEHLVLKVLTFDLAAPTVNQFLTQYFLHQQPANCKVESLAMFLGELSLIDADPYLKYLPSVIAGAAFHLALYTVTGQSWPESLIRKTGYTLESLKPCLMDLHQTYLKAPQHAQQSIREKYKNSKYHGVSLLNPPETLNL
Experimental: as §2, §1

CDK4/cyclin D3 = biological target: T4, CDK4/cyclin D3 (Homo sapiens, UniProt P11802); experiment: CDK reactivity test 1 (Test Example 1); conditions: 10 μg/mL CDK/cyclin complex, 4 μg/mL substrate peptide, ATP-γS, 37° C. 1 hour
T4 construct: purchased SignalChem
T4 sequence (P11802 whole entry): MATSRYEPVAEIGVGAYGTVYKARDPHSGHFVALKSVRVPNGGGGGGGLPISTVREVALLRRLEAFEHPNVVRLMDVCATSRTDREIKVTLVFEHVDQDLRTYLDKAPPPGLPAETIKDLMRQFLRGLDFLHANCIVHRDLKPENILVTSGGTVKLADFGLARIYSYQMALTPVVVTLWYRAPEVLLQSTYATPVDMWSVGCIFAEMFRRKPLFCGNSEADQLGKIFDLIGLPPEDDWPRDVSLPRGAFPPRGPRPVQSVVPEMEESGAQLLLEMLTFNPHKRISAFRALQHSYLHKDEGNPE
T4 sequence (P30281 whole entry partner): as the sequence (P30281 whole entry partner) above
Experimental: as §2, §1

Sequence	CDK4/6 Reactivity (CDK4 and CDK6)	also measured
GMAWSPNPWWRGGGG ({Biotin-Ahx}-GMAWSPNPWWRGGGG) [Polypeptide 4, mutant of Polypeptide 1, N-terminal biotin via aminohexane linker]	5	–
GMFWSPNPWWRGGGG ({Biotin-Ahx}-GMFWSPNPWWRGGGG) [Polypeptide D, mutant of Polypeptide 1, N-terminal biotin via aminohexane linker]	5	–
GMPWSPNAWWRGGGG ({Biotin-Ahx}-GMPWSPNAWWRGGGG) [Polypeptide 8, mutant of Polypeptide 1, N-terminal biotin via aminohexane linker]	7	–
GMPASPNPWWRGGGG ({Biotin-Ahx}-GMPASPNPWWRGGGG) [Polypeptide 5, mutant of Polypeptide 1, N-terminal biotin via aminohexane linker]	1	–
GMPFSPNPWWRGGGG ({Biotin-Ahx}-GMPFSPNPWWRGGGG) [Polypeptide 13, mutant of Polypeptide 1, N-terminal biotin via aminohexane linker]	5	–
AMPWSPNPWWRGGGG ({Biotin-Ahx}-AMPWSPNPWWRGGGG) [Polypeptide 2, mutant of Polypeptide 1, N-terminal biotin via aminohexane linker]	15	–
GMPWSWNPWWRGGGG ({Biotin-Ahx}-GMPWSWNPWWRGGGG) [Polypeptide 15, mutant of Polypeptide 1, N-terminal biotin via aminohexane linker]	2	–
AMPWSPAPAARAGGG ({Biotin-Ahx}-AMPWSPAPAARAGGG) [Polypeptide F, mutant of Polypeptide 1, N-terminal biotin via aminohexane linker]	7	–
RRRFRPASPLRGPPK ({Biotin-Ahx}-RRRFRPASPLRGPPK) [Comparative Polypeptide 2, polypeptide known as a substrate of CDK4 and CDK6; N-terminal biotin via aminohexane linker]	–	Luminescence intensity (CDK2/cyclin E1): 16,211,368; Luminescence intensity (CDK6/cyclin D3): 17,316,904; Luminescence intensity (CDK1/cyclin A2): 41,516,306; Luminescence intensity (CDK4/cyclin D3): 5,439,800
GMYWSPNPWWRGGGG ({Biotin-Ahx}-GMYWSPNPWWRGGGG) [Polypeptide E, mutant of Polypeptide 1, N-terminal biotin via aminohexane linker]	6	–
GAPWSPNPWWRGGGG ({Biotin-Ahx}-GAPWSPNPWWRGGGG) [Polypeptide 3, mutant of Polypeptide 1, N-terminal biotin via aminohexane linker]	33	–
GMPWSPNPWWKGGGG ({Biotin-Ahx}-GMPWSPNPWWKGGGG) [Polypeptide B, mutant of Polypeptide 1, N-terminal biotin via aminohexane linker]	5	–
GMPWSPNPWWHGGGG ({Biotin-Ahx}-GMPWSPNPWWHGGGG) [Polypeptide A, mutant of Polypeptide 1, N-terminal biotin via aminohexane linker]	7	–
GMPWSFNPWWRGGGG ({Biotin-Ahx}-GMPWSFNPWWRGGGG) [Polypeptide 16, mutant of Polypeptide 1, N-terminal biotin via aminohexane linker]	2	–
GMPWSPNPWWRGGGG ({Biotin-Ahx}-GMPWSPNPWWRGGGG) [Polypeptide 1, N-terminal residue biotin-modified via a linker (aminohexane)]	13	Luminescence intensity (CDK2/cyclin E1): 99,167,362; Luminescence intensity (CDK6/cyclin D3): 122,281,045; Luminescence intensity (CDK1/cyclin A2): 93,190,919; Luminescence intensity (CDK4/cyclin D3): 101,127,359
GMPWSPNPWWAGGGG ({Biotin-Ahx}-GMPWSPNPWWAGGGG) [Polypeptide 11, mutant of Polypeptide 1, N-terminal biotin via aminohexane linker]	3	–
GMWWSPNPWWRGGGG ({Biotin-Ahx}-GMWWSPNPWWRGGGG) [Polypeptide C, mutant of Polypeptide 1, N-terminal biotin via aminohexane linker]	5	–
GMPWSYNPWWRGGGG ({Biotin-Ahx}-GMPWSYNPWWRGGGG) [Polypeptide 17, mutant of Polypeptide 1, N-terminal biotin via aminohexane linker]	2	–
GMPWSANPWWRGGGG ({Biotin-Ahx}-GMPWSANPWWRGGGG) [Polypeptide 6, mutant of Polypeptide 1, N-terminal biotin via aminohexane linker]	1	–
GMPYSPNPWWRGGGG ({Biotin-Ahx}-GMPYSPNPWWRGGGG) [Polypeptide 14, mutant of Polypeptide 1, N-terminal biotin via aminohexane linker]	5	–
GMPWSPNPAWRGGGG ({Biotin-Ahx}-GMPWSPNPAWRGGGG) [Polypeptide 9, mutant of Polypeptide 1, N-terminal biotin via aminohexane linker]	7	–
GMPWSPNPWARGGGG ({Biotin-Ahx}-GMPWSPNPWARGGGG) [Polypeptide 10, mutant of Polypeptide 1, N-terminal biotin via aminohexane linker]	15	–
PYKISEGLPTPTKMTPRSRI ({Biotin-Ahx}-PYKISEGLPTPTKMTPRSRI) [Comparative Polypeptide 1, partial peptide of Rb protein which is an in vivo substrate of CDK; N-terminal biotin via aminohexane linker]	–	Luminescence intensity (CDK2/cyclin E1): 104,410,578; Luminescence intensity (CDK6/cyclin D3): 7,417,238; Luminescence intensity (CDK1/cyclin A2): 67,564,327; Luminescence intensity (CDK4/cyclin D3): 810,674
GMPWSPNPWWRAGGG ({Biotin-Ahx}-GMPWSPNPWWRAGGG) [Polypeptide 12, mutant of Polypeptide 1, N-terminal biotin via aminohexane linker]	6	–
GMPWSPAPWWRGGGG ({Biotin-Ahx}-GMPWSPAPWWRGGGG) [Polypeptide 7, mutant of Polypeptide 1, N-terminal biotin via aminohexane linker]	8	–
